Numbers after ± are expanded uncertainties.
Conditions: Liquid, Vibrating tube method

CC(C)CO [2-methyl-1-propanol]
Conditions	mass density [kg/m3]
283.15 K, 89.4 kPa	809.726 ± 0.81
283.15 K, 478.2 kPa	810.123 ± 0.81
283.15 K, 489.9 kPa	810.142 ± 0.81
283.15 K, 930.2 kPa	810.437 ± 0.81
283.15 K, 1027.3 kPa	810.557 ± 0.81
283.15 K, 2172.1 kPa	811.348 ± 0.81
283.15 K, 2992.9 kPa	811.865 ± 0.81
283.15 K, 4993.8 kPa	813.245 ± 0.81
283.15 K, 6906.9 kPa	814.669 ± 0.81
283.15 K, 8995.7 kPa	816.167 ± 0.81
283.15 K, 10003 kPa	816.885 ± 0.82
283.15 K, 12183 kPa	818.287 ± 0.82
283.15 K, 14910 kPa	820.439 ± 0.82
283.15 K, 17915 kPa	822.056 ± 0.83
283.15 K, 20110 kPa	823.875 ± 0.83
283.15 K, 22168 kPa	825.177 ± 0.83
283.15 K, 24886 kPa	826.625 ± 0.84
283.15 K, 27713 kPa	828.29 ± 0.84
283.15 K, 30148 kPa	829.717 ± 0.85
283.15 K, 32117 kPa	830.745 ± 0.85
283.15 K, 33086 kPa	831.522 ± 0.85
283.15 K, 33288 kPa	831.507 ± 0.85
283.15 K, 34077 kPa	832.073 ± 0.85
283.15 K, 35107 kPa	832.469 ± 0.85
283.15 K, 38030 kPa	834.322 ± 0.86
283.15 K, 44591 kPa	837.752 ± 0.87
283.15 K, 54994 kPa	843.308 ± 0.89
283.15 K, 57756 kPa	844.723 ± 0.9
283.15 K, 59886 kPa	845.575 ± 0.9
283.15 K, 61822 kPa	846.524 ± 0.91
283.15 K, 64894 kPa	848.158 ± 0.91
283.16 K, 289.9 kPa	810.056 ± 0.81
283.16 K, 39967 kPa	835.34 ± 0.86
283.16 K, 41406 kPa	835.909 ± 0.87
283.16 K, 48034 kPa	839.7 ± 0.88
283.16 K, 49830 kPa	840.462 ± 0.88
283.16 K, 51952 kPa	841.796 ± 0.89
283.16 K, 66072 kPa	848.566 ± 0.91
288.15 K, 85.3 kPa	806.159 ± 0.81
288.15 K, 351.1 kPa	806.381 ± 0.81
288.15 K, 718.6 kPa	806.519 ± 0.81
288.15 K, 928.3 kPa	806.632 ± 0.81
288.15 K, 1132.3 kPa	807.006 ± 0.81
288.15 K, 1931.6 kPa	807.42 ± 0.81
288.15 K, 3433.9 kPa	808.429 ± 0.81
288.15 K, 5023.9 kPa	809.62 ± 0.81
288.15 K, 6893.9 kPa	810.983 ± 0.81
288.15 K, 8406.4 kPa	812.175 ± 0.81
288.15 K, 12498 kPa	814.345 ± 0.82
288.15 K, 13061 kPa	815.035 ± 0.82
288.15 K, 15159 kPa	815.414 ± 0.82
288.15 K, 16159 kPa	816.818 ± 0.82
288.15 K, 17078 kPa	817.715 ± 0.83
288.15 K, 19062 kPa	818.283 ± 0.83
288.15 K, 20120 kPa	819.399 ± 0.83
288.15 K, 21983 kPa	820.3 ± 0.83
288.15 K, 22948 kPa	821.319 ± 0.84
288.15 K, 24955 kPa	821.837 ± 0.84
288.15 K, 31002 kPa	825.774 ± 0.85
288.15 K, 36056 kPa	828.477 ± 0.86
288.15 K, 38602 kPa	829.859 ± 0.86
288.15 K, 40698 kPa	831.363 ± 0.87
288.15 K, 42984 kPa	832.313 ± 0.87
288.15 K, 44991 kPa	833.694 ± 0.88
288.15 K, 46862 kPa	834.848 ± 0.88
288.15 K, 49740 kPa	835.692 ± 0.89
288.15 K, 53748 kPa	837.321 ± 0.9
288.15 K, 55203 kPa	839.369 ± 0.9
288.15 K, 60810 kPa	841.135 ± 0.91
288.15 K, 65611 kPa	844.144 ± 0.92
288.16 K, 549.3 kPa	806.494 ± 0.81
288.16 K, 9959.1 kPa	813.184 ± 0.82
288.16 K, 27092 kPa	823.174 ± 0.84
288.16 K, 29078 kPa	824.509 ± 0.85
288.16 K, 33729 kPa	826.936 ± 0.85
288.16 K, 57016 kPa	840.129 ± 0.9
288.16 K, 62338 kPa	843.086 ± 0.91
293.15 K, 63.4 kPa	802.054 ± 0.81
293.15 K, 194.5 kPa	802.316 ± 0.81
293.15 K, 662.6 kPa	802.599 ± 0.81
